Measurements reported in US20150104870A1, “NEURONAL DIFFERENTIATION PROMOTER” (KEIO UNIVERSITY, priority 2012, published 2015).
“Also recorded” adds a separate entry of the source.

Columns and labels:
p2 neurospheres = assay: Mouse ESC-derived neurosphere differentiation assay; format: cell-based; conditions: for neuronal differentiation (βIII-tubulin-positive neurons) of p2 neurospheres: lentiviral overexpression in NSCs from p0 stage, differentiated at p2, control miR-LacZ
Experimental: (§1) Mouse ESC (EB3) culture, EB formation, neurosphere formation and differentiation of neurosphere were performed as previously described (Nat. Neurosci. 11, 1014-1023 (2008)). Human NSCs were grown as previously described (J. Neurosci. Res. 69, 869-879 (2002); J. Neurosci. Res. 87, 307-317 (2009)) without […] growth factor (EGF), and allowed to differentiate on a substrate-coated coverslips in the absence of mitogen for 14 days, a procedure similar to that used for mouse neurosphere.
(§2) Immunocytechemistry and immunohistochemistry were performed as previously described (Nat. Neurosci. 11, 1014-1023 (2008)) using antibodies against βIII-tubulin, NeuN (neural marker), glial fibrillary acidic protein (GFAP, astrocyte marker), and haemagglutinin (HA).

developing mouse brain = assay: In utero lentiviral microinjection, fate of infected cells in cerebral cortex; format: in vivo; conditions: lentivirus injected in utero at E10.5, examined at P30
Experimental: Experiments were performed using ICR mice. All aspects of animal care and treatment were carried according to the guidelines of the Experimental Animal Committee of Keio University School of Medicine. In utero microinjection of lentivirus particles into the brain of E10.5 ICR mouse was guided by an in vivo ultrasound real-time scanner (Vevo660; VisualSonics).
as §2

Gfap promoter = assay: Bisulfite sequencing of CpG methylation status; format: cell-based, mouse
Excerpt: The methylation frequency of 10 CpG sequences on the Gfap promoter, including the CpG site in the STAT3-binding sequence as indicated by the arrows, was examined. The graphs show the percentages of methylated CpG cytosines in the whole Gfap promoter (left graph) and the STAT3-binding region (right graph) (t test, n (≧10 clones)=3, NS (not significant), P>0.05). Bars and error bars represent the mean+s.e.m for each condition.

[1] = system: miR-17 binding site in 3′UTR of p38 mRNA; assay: DsRed-Express2 reporter assay (Mp38 sensor) in HEK293 cells; format: cell-based, human; conditions: HEK293 stable transformant, FACS one week after lentivirus, compared to miR-LacZ
Excerpt: FIG. 17 is a graph showing that miR-17 binds to a binding site in the 3′ untranslated region (UTR) of mouse p38 mRNA. […] The miR-17 binding site in 3′UTR of p38 mRNA (to be referred to as “Mp38 sensor”; 2970-2992 of NM_011951) was cloned into a mammal expression vector of the DsRed-Express2 reporter system. After transformation of HEK293 cells, lentiviruses expressing miR-LacZ or miR-17 were introduced into a stable transformant. One week later, the intracellular expression level of DsRed-Express2 was analyzed by FACS. […] (t-test, n (≧3000 cells)=3, **P<0.01). Bars and error bars represent the mean+s.e.m for each condition.

p38 = assay: Western blotting of p38 expression in neurospheres; format: cell-based, mouse; conditions: p2 neurospheres
[2] = system: human fetal brain-derived neurospheres; assay: Human neurosphere differentiation assay; format: cell-based; conditions: human neurospheres treated with inhibitor, vs control
Experimental: as §1, §2

miR-106a: miRNA targeting p38, SEQ ID NO: 6, paralog of miR-17 (CAAAGUGCUAACAGUGCAGGUAG; listed as RNA, chemistry not fully specified; listed as Mus musculus)
neuronal differentiation (βIII-tubulin-positive neurons) of p2 neurospheres (p2 neurospheres): led to a neuronal phenotype

miR-106b: miRNA targeting p38, SEQ ID NO: 7, paralog of miR-17 (UAAAGUGCUGACAGUGCAGAU; listed as RNA, chemistry not fully specified; listed as Mus musculus)
neuronal differentiation (βIII-tubulin-positive neurons) of p2 neurospheres (p2 neurospheres): led to a neuronal phenotype; also recorded: stronger than that of miR-106a

miR-17: miRNA targeting p38, SEQ ID NO: 5, overexpressed by lentivirus (guide CAAAGUGCUUACAGUGCAGGUAG; listed as Mus musculus)
differentiation of p2 neurospheres in presence of gliogenic cytokines (p2 neurospheres; LIF (10 ng/ml) and BMP2 (100 ng/ml) during differentiation, p2 stage): differentiated exclusively into neurons; also recorded: did not undergo gliogenesis
neuropotency of p3 neurospheres (p2 neurospheres; lentiviral infection at onset of p3 stage, within 1 week): marked recovery of neuropotency; also recorded: restored neuropotency of mouse p3 neurospheres
neuronal differentiation (βIII-tubulin-positive neurons) of p2 neurospheres (p2 neurospheres): replicated the phenotype induced by the intact miR-17-92 cluster
infected cells fated to become neurons in the cerebral cortex (developing mouse brain): 97.6%
CpG methylation of Gfap promoter (Gfap promoter; p2 neurosphere stage, overexpression from p0): no significant changes in the extent of CpG methylation
DNA methylation status of the Gfap promoter (Gfap promoter; p3 neurospheres): did not change significantly
DsRed-Express2 reporter expression linked to Mp38 sensor / interaction with p38 mRNA [1]: direct interaction; also recorded: caused a decrease in DsRed-Express2
p38 protein expression (p38): suppressed p38 expression at p2 stage

C[S+]([O-])c1ccc(-c2nc(-c3ccncc3)c(-c3ccc(F)cc3)[nH]2)cc1 (stereo not drawn) [SB203580, reference compound]
percentage of neurons differentiated from p2 neurospheres (neuropotency) (p2 neurospheres; mouse p2 neurospheres, treatment with inhibitor during growth, vs control): showed higher neuropotency than controls; also recorded: increased the percentage of neurons differentiated from p2 neurospheres
percentage of neurons differentiated from human neurospheres (neuropotency) [2]: restored neuropotency; also recorded: increased the percentage of neurons differentiated from the neurospheres
